Values after ≈ are worked out from the molar mass of the structure shown.
Key:
[1] = Growth inhibition of human MIAPaCa2 cells after 72 hrs by CCK-8 assay; assay type: functional, cell-based; conditions: MIA PaCa-2, 72 h
[2] = molecular target: T1, Serine/threonine-protein kinase pim-3 (Homo sapiens, UniProt Q86V86); experiment: Inhibition of PIM3 (unknown origin) at 200 nM by electrophoretic mobility shift assay
[3] = molecular target: Serine/threonine-protein kinase pim-2 (Homo sapiens, UniProt Q9P1W9); experiment: Inhibition of PIM2 (unknown origin) at 200 nM by electrophoretic mobility shift assay
Serine/threonine-protein kinase pim-2, sequence (Q9P1W9 whole entry, looked up): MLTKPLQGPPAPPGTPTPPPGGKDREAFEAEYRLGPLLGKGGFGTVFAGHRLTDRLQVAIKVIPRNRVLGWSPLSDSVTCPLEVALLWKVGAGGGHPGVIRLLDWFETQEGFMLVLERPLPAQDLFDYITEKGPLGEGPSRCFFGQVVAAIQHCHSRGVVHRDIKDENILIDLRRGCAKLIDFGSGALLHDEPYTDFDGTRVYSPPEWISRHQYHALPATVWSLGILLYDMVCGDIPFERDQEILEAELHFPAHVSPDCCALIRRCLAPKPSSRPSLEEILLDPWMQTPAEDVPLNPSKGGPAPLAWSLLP

[4] = molecular target: Receptor-type tyrosine-protein kinase FLT3 (Homo sapiens) (UniProt P36888); experiment: Inhibition of FLT3 (unknown origin) at 200 nM by electrophoretic mobility shift assay
[5] = molecular target: Serine/threonine-protein kinase 4 (Homo sapiens) (UniProt Q13043); experiment: Inhibition of MST1 (unknown origin) at 200 nM by electrophoretic mobility shift assay
[6] = molecular target: CYP2C19 (Homo sapiens, UniProt P33261); experiment: Inhibition of CYP2C19 (unknown origin) at 10 uM; assay type: ADME
CYP2C19, sequence (P33261 whole entry): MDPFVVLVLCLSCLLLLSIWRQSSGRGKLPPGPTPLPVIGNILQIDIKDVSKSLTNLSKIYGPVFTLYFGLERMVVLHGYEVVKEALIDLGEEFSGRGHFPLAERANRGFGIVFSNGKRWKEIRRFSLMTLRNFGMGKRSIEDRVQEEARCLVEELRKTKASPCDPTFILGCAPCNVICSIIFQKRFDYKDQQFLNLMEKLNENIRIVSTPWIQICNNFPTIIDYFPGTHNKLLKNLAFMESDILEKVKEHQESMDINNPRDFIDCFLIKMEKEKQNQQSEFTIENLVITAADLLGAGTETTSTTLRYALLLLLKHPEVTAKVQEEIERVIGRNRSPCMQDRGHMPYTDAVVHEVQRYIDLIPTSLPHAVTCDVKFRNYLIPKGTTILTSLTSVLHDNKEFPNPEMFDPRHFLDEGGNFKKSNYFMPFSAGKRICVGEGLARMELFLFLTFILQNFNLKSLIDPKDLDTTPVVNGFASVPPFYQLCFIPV

[7] = molecular target: hERG (KCNH2) (Homo sapiens, UniProt Q12809); experiment: Inhibition of human ERG at 10 uM by patch-clamp method
[8] = molecular target: Aurora kinase A (Homo sapiens) (UniProt O14965); experiment: Inhibition of AurA (unknown origin) at 200 nM by electrophoretic mobility shift assay
Aurora kinase A (Homo sapiens), sequence (O14965 whole entry): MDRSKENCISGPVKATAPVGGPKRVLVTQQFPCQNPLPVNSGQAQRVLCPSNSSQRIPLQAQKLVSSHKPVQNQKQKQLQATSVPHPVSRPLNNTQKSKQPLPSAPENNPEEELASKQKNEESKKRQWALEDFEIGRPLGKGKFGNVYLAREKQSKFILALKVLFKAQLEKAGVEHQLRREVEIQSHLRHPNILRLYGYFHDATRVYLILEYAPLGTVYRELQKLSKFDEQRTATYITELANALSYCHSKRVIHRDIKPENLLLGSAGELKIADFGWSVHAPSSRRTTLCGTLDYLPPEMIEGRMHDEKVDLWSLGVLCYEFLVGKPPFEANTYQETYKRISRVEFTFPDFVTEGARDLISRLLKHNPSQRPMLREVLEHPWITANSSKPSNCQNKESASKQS

[9] = molecular target: Platelet-derived growth factor receptor alpha (Homo sapiens) (UniProt P16234); experiment: Inhibition of PDGFRalpha (unknown origin) at 200 nM by electrophoretic mobility shift assay
[10] = molecular target: RAC-alpha serine/threonine-protein kinase (Homo sapiens) (UniProt P31749); experiment: Inhibition of AKT1 (unknown origin) at 200 nM by electrophoretic mobility shift assay
[11] = molecular target: T2, Glycogen synthase kinase-3 beta (Homo sapiens, UniProt P49841); experiment: Inhibition of GSK3beta (unknown origin) by electrophoretic mobility shift assay
[12] = molecular target: Insulin-like growth factor 1 receptor (Homo sapiens) (UniProt P08069); experiment: Inhibition of IGF1R (unknown origin) at 200 nM by electrophoretic mobility shift assay
[13] = molecular target: Inhibitor of nuclear factor kappa-B kinase subunit beta (Homo sapiens) (UniProt O14920); experiment: Inhibition of IKKbeta (unknown origin) at 200 nM by electrophoretic mobility shift assay
[14] = molecular target: Serine/threonine-protein kinase Nek2 (Homo sapiens) (UniProt P51955); experiment: Inhibition of NEK2 (unknown origin) at 200 nM by electrophoretic mobility shift assay
Serine/threonine-protein kinase Nek2 (Homo sapiens), sequence (P51955 whole entry): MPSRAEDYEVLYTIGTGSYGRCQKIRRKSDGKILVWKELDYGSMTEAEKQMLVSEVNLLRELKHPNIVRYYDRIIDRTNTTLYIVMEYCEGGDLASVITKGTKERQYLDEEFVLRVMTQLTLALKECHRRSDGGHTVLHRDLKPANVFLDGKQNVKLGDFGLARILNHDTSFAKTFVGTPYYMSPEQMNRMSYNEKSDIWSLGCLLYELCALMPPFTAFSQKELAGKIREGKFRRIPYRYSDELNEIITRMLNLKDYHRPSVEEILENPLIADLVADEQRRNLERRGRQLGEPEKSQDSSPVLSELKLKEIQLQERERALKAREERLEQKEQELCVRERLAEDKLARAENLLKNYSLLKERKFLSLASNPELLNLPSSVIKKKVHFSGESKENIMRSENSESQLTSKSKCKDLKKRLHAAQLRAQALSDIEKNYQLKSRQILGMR

[15] = molecular target: Serine/threonine-protein kinase D2 (Homo sapiens) (UniProt Q9BZL6); experiment: Inhibition of PKD2 (unknown origin) at 200 nM by electrophoretic mobility shift assay
[16] = tested on: Mus musculus; experiment: Toxicity in BALB/c nu/nu mouse xenografted with human PCI66 cells assessed as affect on body weight at 30 mg/kg, ip qd dosed for 5 days followed by 2 days cessation measured 33 days after tumor inoculation; assay type: organism-based; conditions: in vivo, 792 h
[17] = Aqueous solubility in PBS buffer solution at pH 7.4; assay type: physicochemical
[18] = molecular target: Calcium/calmodulin-dependent protein kinase type IV (Homo sapiens) (UniProt Q16566); experiment: Inhibition of CaMK4 (unknown origin) at 200 nM by electrophoretic mobility shift assay
[19] = Antitumor activity against human PCI66 cells xenografted in BALB/c nu/nu mouse assessed as reduction in tumor volume at 30 mg/kg, ip qd dosed for 5 days followed by 2 days cessation measured 33 days after tumor inoculation relative to control; assay type: functional
[20] = molecular target: Epidermal growth factor receptor (Homo sapiens) (UniProt P00533); experiment: Inhibition of EGFR (unknown origin) at 200 nM by electrophoretic mobility shift assay
Epidermal growth factor receptor (Homo sapiens), sequence (P00533 whole entry): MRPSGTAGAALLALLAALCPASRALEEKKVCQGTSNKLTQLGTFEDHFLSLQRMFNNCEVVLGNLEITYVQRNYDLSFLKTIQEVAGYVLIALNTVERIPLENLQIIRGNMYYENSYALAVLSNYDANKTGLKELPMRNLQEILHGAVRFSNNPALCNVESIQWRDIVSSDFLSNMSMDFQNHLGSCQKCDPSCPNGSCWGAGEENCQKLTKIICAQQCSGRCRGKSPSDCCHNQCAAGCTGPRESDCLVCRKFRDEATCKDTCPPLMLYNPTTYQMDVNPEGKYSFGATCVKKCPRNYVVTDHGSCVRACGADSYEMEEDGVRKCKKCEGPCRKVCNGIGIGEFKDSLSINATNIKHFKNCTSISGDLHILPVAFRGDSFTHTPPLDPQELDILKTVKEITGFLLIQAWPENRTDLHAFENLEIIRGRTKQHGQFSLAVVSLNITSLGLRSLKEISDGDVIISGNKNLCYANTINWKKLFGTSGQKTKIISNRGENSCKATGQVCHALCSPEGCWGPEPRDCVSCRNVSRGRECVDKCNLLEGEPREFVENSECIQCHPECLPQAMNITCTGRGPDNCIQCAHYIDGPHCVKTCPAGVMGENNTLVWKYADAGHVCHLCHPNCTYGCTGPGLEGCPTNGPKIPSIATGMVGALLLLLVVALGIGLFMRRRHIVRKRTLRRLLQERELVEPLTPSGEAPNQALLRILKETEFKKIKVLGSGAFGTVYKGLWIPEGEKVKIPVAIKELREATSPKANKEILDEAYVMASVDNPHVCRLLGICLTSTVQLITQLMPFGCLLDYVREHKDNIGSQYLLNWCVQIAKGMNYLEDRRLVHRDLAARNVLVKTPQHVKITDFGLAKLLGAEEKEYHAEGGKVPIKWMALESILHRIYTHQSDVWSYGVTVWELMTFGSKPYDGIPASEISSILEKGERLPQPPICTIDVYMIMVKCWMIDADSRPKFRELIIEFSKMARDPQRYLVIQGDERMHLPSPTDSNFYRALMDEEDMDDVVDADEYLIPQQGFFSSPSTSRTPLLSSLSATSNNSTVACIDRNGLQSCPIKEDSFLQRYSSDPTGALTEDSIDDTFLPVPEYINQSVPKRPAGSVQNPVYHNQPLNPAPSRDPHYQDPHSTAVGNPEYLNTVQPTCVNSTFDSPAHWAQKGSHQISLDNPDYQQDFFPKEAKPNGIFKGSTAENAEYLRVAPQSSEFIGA

[21] = molecular target: Interleukin-1 receptor-associated kinase 4 (Homo sapiens) (UniProt Q9NWZ3); experiment: Inhibition of IRAK4 (unknown origin) at 200 nM by electrophoretic mobility shift assay
Interleukin-1 receptor-associated kinase 4 (Homo sapiens), sequence (Q9NWZ3 whole entry): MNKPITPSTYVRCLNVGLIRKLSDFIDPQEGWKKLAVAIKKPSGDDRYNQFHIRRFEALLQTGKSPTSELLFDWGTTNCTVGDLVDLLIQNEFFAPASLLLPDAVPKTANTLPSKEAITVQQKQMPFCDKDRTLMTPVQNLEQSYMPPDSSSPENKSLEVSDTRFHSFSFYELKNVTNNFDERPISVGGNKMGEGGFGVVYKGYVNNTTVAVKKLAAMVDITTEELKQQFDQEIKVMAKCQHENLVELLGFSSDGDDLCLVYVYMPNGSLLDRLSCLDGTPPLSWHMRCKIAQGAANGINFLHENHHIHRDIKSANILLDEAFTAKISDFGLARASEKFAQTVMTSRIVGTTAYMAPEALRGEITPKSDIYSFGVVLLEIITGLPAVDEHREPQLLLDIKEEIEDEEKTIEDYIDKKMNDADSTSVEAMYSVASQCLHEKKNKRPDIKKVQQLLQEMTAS

[22] = molecular target: Protein-tyrosine kinase 2-beta (Homo sapiens) (UniProt Q14289); experiment: Inhibition of PYK2 (unknown origin) at 200 nM by electrophoretic mobility shift assay
[23] = molecular target: Angiopoietin-1 receptor (Homo sapiens) (UniProt Q02763); experiment: Inhibition of TIE2 (unknown origin) at 200 nM by electrophoretic mobility shift assay
[24] = molecular target: Serine/threonine-protein kinase pim-1 (Homo sapiens, UniProt P11309); experiment: Inhibition of PIM1 (unknown origin) by electrophoretic mobility shift assay
Serine/threonine-protein kinase pim-1, sequence (P11309 whole entry): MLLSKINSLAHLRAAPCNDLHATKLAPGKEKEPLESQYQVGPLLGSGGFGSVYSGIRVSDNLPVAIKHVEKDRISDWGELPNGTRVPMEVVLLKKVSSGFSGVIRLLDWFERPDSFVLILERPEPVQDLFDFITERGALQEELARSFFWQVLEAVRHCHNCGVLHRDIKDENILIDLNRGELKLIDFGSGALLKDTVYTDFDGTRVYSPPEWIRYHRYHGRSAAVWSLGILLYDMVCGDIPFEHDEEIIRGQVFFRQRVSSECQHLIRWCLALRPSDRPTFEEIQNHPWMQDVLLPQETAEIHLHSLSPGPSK

[25] = molecular target: cAMP-dependent protein kinase catalytic subunit alpha (Homo sapiens) (UniProt P17612); experiment: Inhibition of PKACalpha (unknown origin) at 200 nM by electrophoretic mobility shift assay
[26] = Growth inhibition of human PCI35 cells after 72 hrs by CCK-8 assay; assay type: functional, cell-based; conditions: PCI35, 72 h
[27] = molecular target: Tyrosine-protein kinase ITK/TSK (Homo sapiens) (UniProt Q08881); experiment: Inhibition of ITK (unknown origin) at 200 nM by electrophoretic mobility shift assay
Tyrosine-protein kinase ITK/TSK (Homo sapiens), sequence (Q08881 whole entry): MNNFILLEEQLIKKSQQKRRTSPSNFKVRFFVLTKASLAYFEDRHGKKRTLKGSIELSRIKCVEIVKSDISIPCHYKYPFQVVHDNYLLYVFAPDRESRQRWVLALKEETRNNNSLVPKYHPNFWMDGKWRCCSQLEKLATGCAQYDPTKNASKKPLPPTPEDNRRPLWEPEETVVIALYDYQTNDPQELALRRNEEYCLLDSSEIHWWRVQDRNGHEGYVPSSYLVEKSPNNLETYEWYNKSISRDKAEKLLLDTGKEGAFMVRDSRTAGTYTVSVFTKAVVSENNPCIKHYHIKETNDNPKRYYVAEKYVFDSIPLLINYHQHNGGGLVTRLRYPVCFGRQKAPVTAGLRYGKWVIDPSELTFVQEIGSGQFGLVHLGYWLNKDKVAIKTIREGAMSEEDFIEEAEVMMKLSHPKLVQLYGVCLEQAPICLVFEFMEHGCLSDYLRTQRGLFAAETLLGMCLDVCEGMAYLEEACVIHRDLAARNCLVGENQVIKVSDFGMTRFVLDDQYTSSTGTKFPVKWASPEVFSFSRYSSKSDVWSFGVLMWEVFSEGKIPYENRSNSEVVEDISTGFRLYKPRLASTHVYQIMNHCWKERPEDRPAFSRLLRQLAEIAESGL

[28] = Growth inhibition of human L3.6PL cells after 72 hrs by CCK-8 assay; assay type: functional
[29] = molecular target: Tyrosine-protein kinase ABL1 (Homo sapiens) (UniProt P00519); experiment: Inhibition of ABL (unknown origin) at 200 nM by electrophoretic mobility shift assay
[30] = molecular target: Tyrosine-protein kinase CSK (Homo sapiens) (UniProt P41240); experiment: Inhibition of CSK (unknown origin) at 200 nM by electrophoretic mobility shift assay
[31] = molecular target: Tyrosine-protein kinase SYK (Homo sapiens) (UniProt P43405); experiment: Inhibition of SYK (unknown origin) at 200 nM by electrophoretic mobility shift assay
[32] = molecular target: AMP-activated protein kinase, AMPK (Homo sapiens) (UniProt P54646+O43741+P54619+Q9UGJ0+Q9Y478+Q13131+Q9UGI9); experiment: Inhibition of AMPKalpha1/beta1/gama1 (unknown origin) at 200 nM by electrophoretic mobility shift assay; assay type: protein-complex assay
[33] = molecular target: T1, Serine/threonine-protein kinase pim-3; experiment: Inhibition of PIM3 (unknown origin) using FL-Peptide 1 (5-FAM-AKRRRLSSLRA-COOH) substrate incubated for 2 hrs by electrophoretic mobility shift assay
[34] = Growth inhibition of human PCI66 cells after 72 hrs by CCK-8 assay; assay type: functional, cell-based; conditions: PCI66, 72 h
[35] = molecular target: Death-associated protein kinase 1 (Homo sapiens, UniProt P53355); experiment: Inhibition of DAPK1 (unknown origin) by electrophoretic mobility shift assay
[36] = molecular target: T2, Glycogen synthase kinase-3 beta; experiment: Inhibition of GSK3beta (unknown origin) at 200 nM by electrophoretic mobility shift assay
[37] = molecular target: MAP kinase-activated protein kinase 2 (Homo sapiens) (UniProt P49137); experiment: Inhibition of MAPKAPK2 (unknown origin) at 200 nM by electrophoretic mobility shift assay

SMILES	inhibition [2] [%]	inhibition [3] [%]	inhibition [4] [%]	inhibition [5] [%]	inhibition at 10 µM [6] [%]	inhibition at 10 µM [7] [%]	inhibition [8] [%]	inhibition [9] [%]	inhibition [10] [%]	inhibition [12] [%]	inhibition [13] [%]	inhibition [14] [%]	inhibition [15] [%]	solubility [17] [µM]	inhibition [18] [%]	inhibition [20] [%]	inhibition [21] [%]	inhibition [22] [%]	inhibition [23] [%]	inhibition [25] [%]	further results
COc1ccc2c(c1C(C)N1CCNCC1)O/C(=C\c1n[nH]c3ncccc13)C2=O (centres undefined)	99	30.2	68	-7.4	16	34	-0.4	24.2	1.7	1.1	-2.8	-4	13.1	558 (≈ 226 µg/mL)	-1.5	-1	-0.6	11.2	0.8	18.4	IC50 [1]: 3500 nM; IC50 [11]: 6.1 nM; Activity [16]: Non-toxic; inhibition in vivo at 30 mg/kg [19]: 52.5%; IC50 [24]: 1.9 nM; IC50 [26]: 5100 nM; inhibition [27]: 2%; IC50 [28]: 6300 nM; inhibition [29]: 1%; inhibition [30]: 0.9%; inhibition [31]: 5.3%; inhibition [32]: 8.6%; IC50 [33]: 2.5 nM; IC50 [34]: 3800 nM; IC50 [35]: 12 nM; inhibition [36]: 95%
COc1ccc2c(c1CN1CCNCC1)O/C(=C\c1n[nH]c3ncccc13)C2=O	102	28.4	55.5	-2.3	< 1	34	5.1	5.4	-0.2	-3	4.1	-2.1	31.6	182 (≈ 71.2 µg/mL)	-4.6	-8	-3.8	-0.4	0	4	inhibition [37]: -1.2%; inhibition [27]: 3.5%; inhibition [29]: -4.1%; inhibition [30]: -5.8%; inhibition [31]: -7.5%; inhibition [32]: 1.3%; IC50 [33]: 1.8 nM; inhibition [36]: 76.5%

From ChEMBL document CHEMBL3734671, “Design and synthesis of an in vivo-efficacious PIM3 kinase inhibitor as a candidate anti-pancreatic cancer agent” (Bioorg Med Chem Lett, 2015)
